# Results taken from patent publication US9394233B2, “ROS-activated compounds as selective anti-cancer therapeutics” (University of Cincinnati, priority 2012, dated 2016).
# Experiments:
# renal cancer cells = experiment: Sulforhodamine B total protein content assay, renal cancer cell lines (NCI); assay type: cell-based; details: Homo sapiens; median over seven renal cancer cell lines
# Protocol: (§1) The sensitivity of renal cancer cells to treatment with compound 25 was investigated. Compound 25 was evaluated for effects on viability using a sulforhodamine B total protein content assay at the NCI Developmental Therapeutics Program. The method uses total protein content and was developed by Monks et al., Feasibility of a high-flux anticancer drug screen using a diverse panel of cultured human tumor cell lines, J. Natl. Cancer Inst. 83:757-66 (1991). Briefly, cells are treated with compound 25 and then fixed to the plate surface. The number of cells is proportional to the relative amount of protein as measured by sulforhodamine B. Seven renal cancer cell lines were examined: 786-0, A498, ACHN, CAKI-1, RXF 393, SN12C, and UO-31. Data at the NCI was then fit to sigmoid and the IC50 and fitting error determined
# MOLT-4 = experiment: NCI-60 Sulforhodamine B growth inhibition, MOLT-4; assay type: cell-based; details: Homo sapiens; MOLT-4, ALL model line
# Protocol: (§2) Compounds 25 and 9 were evaluated for effects on the viability of the cell lines in the NCI-60 cell panel. […] Data is reported as growth inhibition GI50, rather than IC50, to reflect the change in cell counts relative to the starting number of cells.
# (§3) Growth inhibition pattern induced by 25 and 9 based on the type of cancer was also analyzed. […] The majority of leukemia and renal cancer cell lines were above the median, indicating enhanced sensitivity to ROS-activating compounds. The current results further substantiate renal carcinoma as a potential target.
# MA9.3 AML cells = experiment: AML cytotoxicity, MTT assay on MA9.3 AML cell line; assay type: cell-based, human; details: Homo sapiens, read-out: IC50 against MA9.3 AML cells
# Source text: (§4) To assess the anti-cancer activity against AML, transformed cells were compared to closely related, non-transformed counterparts. In the case of AML, the generally accepted non-transformed cell of origin is the human CD34+ blood stem/progenitor cell. Assessing potency against normal blood stem cells is important since, without selective cytotoxicity, an agent will yield reduced efficacy and therapeutic potential. […] Therefore, a comparison of current agents and the ROS-activated compounds disclosed herein was carried out. (FIG. 3). Cytotoxicity was measured via MTT assay on CD34+ blood stem/progenitor cells (grey lines) and on the MA9.3 AML cell line (black lines), which was derived from the transformation of human CD34+ cells by introduction of the leukemia oncogene MLL-AF9.
# NCI-60 cell panel = experiment: NCI-60 cell panel, Sulforhodamine B growth inhibition; assay type: cell-based
# Protocol: as §2
# CAKI-1 = experiment: Sulforhodamine B total protein content assay, CAKI-1; assay type: cell-based; details: Homo sapiens; CAKI-1 renal cancer cells
# Protocol: as §1
# SN12C = experiment: Sulforhodamine B total protein content assay, SN12C; assay type: cell-based; details: Homo sapiens; SN12C renal cancer cells
# Protocol: as §1
# ACHN = experiment: Sulforhodamine B total protein content assay, ACHN; assay type: cell-based; details: Homo sapiens; ACHN renal cancer cells
# Protocol: as §1
# [1] = tested on: human CD34+ blood stem/progenitor cells; experiment: Cytotoxicity, MTT assay on CD34+ blood stem/progenitor cells; assay type: cell-based; details: Homo sapiens, normal blood stem cells, read-out: IC50 against CD34+ blood stem/progenitor cells
# Source text: as §4
# SR-91 = experiment: NCI-60 Sulforhodamine B growth inhibition, SR-91; assay type: cell-based; details: SR-91, acute lymphoblastic leukemia model
# Protocol: as §2, §3
# HeLa cells = experiment: HeLa cell viability, MTT assay; assay type: cell-based; details: Homo sapiens, 50% reduction in percent of viable HeLa cells, read-out: IC50 against HeLa Cells
# Protocol: Table 1 sets forth ROS-Activated compounds of the present invention, together with their IC50 values corresponding to a 50% reduction in the percent of viable HeLa cells in vitro as measured via MTT assay.
# All synthesized compounds were purified to greater than 98% purity prior to cell testing. HeLa cell viability assays were performed using an MTT assay.
# The general structure of the ROS-activated compounds disclosed herein was probed to determine how positions in the structure alter potency in aqueous media. Compounds were screened against HeLa cells to determine IC50 values. Cell viability was monitored by an MTT dye that forms a purple formazan product in viable cells that are undergoing metabolism. […] Errors reported are between two separate experiments; independent curve-fitting had r greater than 0.95).
# RPMI-8226 = experiment: NCI-60 Sulforhodamine B growth inhibition, RPMI-8226; assay type: cell-based; details: Homo sapiens; RPMI-8226, plasmacytoma and myeloma cell line
# Protocol: as §2, §3
smiles,measurement,setting,value
"Oc1ccc(OCCN(CCOc2ccc(O)cc2)c2ccccc2)cc1 [Compound 25, 4,4′-(2,2′-(phenylazanediyl)bis(ethane-2,1-diyl)bis(oxy))diphenol]",IC50,renal cancer cells,1800 nM
same,GI50,MOLT-4,1300 nM
same,IC50,MA9.3 AML cells,3000 ± 200 nM
same,range of GI50 values,NCI-60 cell panel; distribution of GI50 over NCI-60 panel,55 fold
same,GI50,"NCI-60 cell panel; median over NCI-60 panel, Sulforhodamine B",3900 nM
same,IC50,CAKI-1,370 ± 40 nM
same,IC50,SN12C,21000 ± 1200 nM
same,IC50,ACHN,360 ± 90 nM
same,IC50,[1],16000 ± 1000 nM
same,GI50,SR-91,470 nM
same,IC50,HeLa cells,11000 nM
same,GI50,RPMI-8226,3800 nM
